Values quoted from earlier work, collected in patent publication US20250144120A1, “COMPOSITIONS AND METHODS FOR TREATING SKIN CONDITIONS” (priority 2023, published 2025).

Assays:
[1] = tested on: skin (guinea pigs)
[2] = tested on: skin (rabbits)
[3] = tested on: eyes (rabbits)
[4] = tested on: animal subjects

In the case of `CCCCCCCCCCCCCCCCCCCCC[N+](C)(C)[Si](O)(O)O.[Cl-]` [Octadecyldimethyltrihydroxysilyl propyl ammonium chloride], the skin irritation [1] is given as “does not irritate”, the skin irritation [2] is given as “does not irritate” and the eye irritation [3] is given as “does not irritate”. The LD50 via ingestion ([4]; ingestion) was greater than 5000 mg/kg and the LD50 via inhalation ([4]; inhalation) was greater than 2 mg/L.
